Data: patent US8710180B2, “VEGF-specific capture agents, compositions, and methods of using and making” (Indi Molecular, Inc., priority 2011, dated 2014)
Values joined by “and” are separate entries in the source; they are usually repeats but may differ in a detail not shown here. Equal values may be shown once. Read-outs that look alike come from different tables or passages of the source. Where a SMILES comes first, the peptide text is derived from it. Bridges are numbered along the chain shown (N, C = ends). Roman numbers before positions name the chains, in order. Triazole bridges read from a SMILES are 1,4-linked. [ ]: non-standard residue; d: D form. Lys(N3) = [N-]=[N+]=NCCCC[C@H](N)C(=O)O; dPra = C#CC[C@@H](N)C(=O)O

Columns and labels:
[1] = test system: Human umbilical vein endothelial cells (HUVECs); experiment: inhibition of HUVEC proliferation; assay type: cell-based; conditions: 48 h, read-out: IC50 (antagonist)
Method: HUVECs were cultured in M199 medium (pH 7.4) in 5% CO2 at 37° C. for 18 hours. Test compound and/or vehicle were incubated with cells (1.1×10^5/mL) in the presence of heparin (10 μg/mL) and 0.5% FBS at 37° C. for 48 hours. Capture agents were screened at 10, 1, 0.1, 0.01 and 0.001 μM and in duplicate. […] Subsequently, the reagent Calcein AM dye (20 μg/ml) was added for an additional 50 minute incubation period. Fluorescence intensity was read on SpectroFluor Plus plate reader.

[2] = plasma concentrations and pharmacokinetics of VEGF-PCC after a single IV or IP dose in mice, LC-MS/MS; assay type: in vivo, mouse; conditions: for Plasma concentration: individual animal; for C0: iv
Excerpt: Test article: VEGF-PCC (IN-VT-1001 Triligand) (PCC monomer) Ac-[…]-Tz4-lfrew-Tz4-eeird (SEQ ID NO: 71). The underlined region inclusive of the Cys residues is cyclized by a disulfide bond, Ac=N-terminal acetylation, and Tz4=1,4-disubstituted 1,2,3-triazole.
The LC-MS/MS system for analysis was comprised of an Agilent 1200 high performance liquid chromatography (HPLC) and a 5500 Qtrap mass spectrometer (Applied Biosystems by Life Technologies, Carlsbad, Calif.).
Concentrations of VEGF-PCC in mouse plasma were determined using a non-validated LC MS/MS assay with Angiotensin I as the internal standard following a solid phase extraction method. Individual VEGF-PCC calibration and QC standards were prepared from the respective intermediate stock solutions by addition to naïve mouse plasma. The target working range of the calibration curve was 50 to 5,000 ng/mL in plasma and the target concentrations of the QC standards were 150 to 3,750 ng/mL in plasma for VEGF-PCC.
Mice received a single IV dose of VEGF-PCC at 1 mg/kg. A summary of the plasma concentrations for individual animals is shown in Table A. Plasma pharmacokinetic parameters are listed in Table 9.
Mice received a single IP dose of VEGF-PCC at 5 mg/kg. A summary of the plasma concentrations for individual animals is shown in Table B. Plasma pharmacokinetic parameters are listed in Table 9.

[3] = in vivo, mouse plasma, IP, 5 mg/kg
[4] = in vivo, mouse plasma, IV, 1 mg/kg

With `Cc1cc(C)c(/C=C2\C(=O)Nc3ccccc32)[nH]1` [SU5416] the IC50 [1] was 48 nM.
`CC[C@@H](C)[C@@H](NC(=O)[C@@H](CCC(=O)O)NC(=O)[C@@H](CCC(=O)O)NC(=O)[C@H](N)Cc1cn(CCCC[C@H](NC(=O)[C@@H](Cc2c[nH]c3ccccc23)NC(=O)[C@@H](CCC(=O)O)NC(=O)[C@@H](CCCNC(=N)N)NC(=O)[C@@H](Cc2ccccc2)NC(=O)[C@@H](CC(C)C)NC(=O)[C@H](N)Cc2cn(CCCC[C@H](NC(=O)[C@H](CC(C)C)NC(=O)[C@H](CCCNC(=N)N)NC(=O)[C@H](CCC(=O)O)NC(=O)[C@H](Cc3ccccc3)NC(=O)[C@@H]3CSSC[C@H](NC(=O)[C@H](CC(N)=O)NC(=O)[C@@H]4CCCN4C(=O)[C@H](CCC(=O)O)NC(=O)[C@@H](NC(C)=O)C(C)C)C(=O)N[C@@H](CC(=O)O)C(=O)N[C@@H]([C@@H](C)CC)C(=O)N[C@@H](Cc4c[nH]cn4)C(=O)N[C@@H](C(C)C)C(=O)N[C@@H](CCSC)C(=O)N[C@@H](Cc4c[nH]c5ccccc45)C(=O)N[C@@H](CCC(=O)O)C(=O)N[C@@H](Cc4c[nH]c5ccccc45)C(=O)N[C@@H](CCC(=O)O)C(=O)N3)C(=O)O)nn2)C(=O)O)nn1)C(=O)N[C@H](CCCNC(=N)N)C(=O)N[C@H](CC(=O)O)C(N)=O` [VEGF-PCC] (I: Ac-VEPNCDIHVMWEWECFERL[Lys(N3)]-OH / II: H-[dPra][dL][dF][dR][dE][dW][Lys(N3)]-OH / III: H-[dPra][dE][dE][dI][dR][dD]-NH2; disulfide I:5-I:15; triazole I:20-II:1, II:7-III:1) showed an AUC(0-inf) [2, 3] of 32200 ng·h/mL, an AUC(0-t) [2, 3] of 31500 ng·h/mL and a Cmax [2, 3] of 19800 ng/mL. For the same compound, the Tmax [2, 3] was 30 min, the AUC(0-inf) [2, 4] was 6490 ng·h/mL and the AUC(0-t) [2, 4] was 6070 ng·h/mL. It also gave a clearance [2, 4] of 2.57 mL/min/kg, a half-life [2, 4] of 35.9 min and a Vd ([2]; in vivo, mouse plasma, IV, 1 mg/kg, read-out: Vss) of 0.0967 L/kg. The Plasma concentration ([2]; IP 5 mg/kg, 10 minutes postdose, listed as IN-VT-1001, 5 mg/kg) was 17500 ng/mL and 17000 ng/mL and 13400 ng/mL, the Plasma concentration ([2]; IP 5 mg/kg, 30 minutes postdose, listed as IN-VT-1001, 5 mg/kg) was 19400 ng/mL and 20200 ng/mL and BLQ and the Plasma concentration ([2]; IP 5 mg/kg, 60 minutes postdose, listed as IN-VT-1001, 5 mg/kg) was 10800 ng/mL and 23900 ng/mL and 11500 ng/mL. The Plasma concentration ([2]; IP 5 mg/kg, 120 minutes postdose, listed as IN-VT-1001, 5 mg/kg) was “BLQ and 4730 ng/mL and 3640 ng/mL”, the Plasma concentration ([2]; IP 5 mg/kg, 240 minutes postdose, listed as IN-VT-1001, 5 mg/kg) was 259 ng/mL and 807 ng/mL and BLQ and the Plasma concentration ([2]; IP 5 mg/kg, 360 minutes postdose, listed as IN-VT-1001, 5 mg/kg) was 390 ng/mL and BLQ (2×). For the same compound, the Plasma concentration ([2]; IP 5 mg/kg, 480 minutes postdose) was “BLQ”, the Plasma concentration ([2]; IP 5 mg/kg, 1440 minutes postdose) was “BLQ” and the Plasma concentration ([2]; IV 1 mg/kg, 3 minutes postdose, listed as IN-VT-1001, 1 mg/kg) was 14200 ng/mL and 16200 ng/mL and 12000 ng/mL. The Plasma concentration ([2]; IV 1 mg/kg, 10 minutes postdose, listed as IN-VT-1001, 1 mg/kg) was 7220 ng/mL and 7550 ng/mL and 6110 ng/mL, the Plasma concentration ([2]; IV 1 mg/kg, 30 minutes postdose, listed as IN-VT-1001, 1 mg/kg) was 2170 ng/mL and 2210 ng/mL and 3420 ng/mL and the Plasma concentration ([2]; IV 1 mg/kg, 60 minutes postdose, listed as IN-VT-1001, 1 mg/kg) was 1840 ng/mL and 2380 ng/mL and 1870 ng/mL. For the same compound, the Plasma concentration ([2]; IV 1 mg/kg, 120 minutes postdose, listed as IN-VT-1001, 1 mg/kg) was 551 ng/mL and 400 ng/mL and 514 ng/mL, the Plasma concentration ([2]; IV 1 mg/kg, 240 minutes postdose) was “BLQ” and the Plasma concentration ([2]; IV 1 mg/kg, 360 minutes postdose) was “BLQ”. The Plasma concentration ([2]; IV 1 mg/kg, 1440 minutes postdose) was “BLQ”, the Mean plasma concentration ([2]; mean, IP 5 mg/kg, 480 minutes postdose) was 0.00 ng/mL and the Mean plasma concentration ([2]; mean, IP 5 mg/kg, 1440 minutes postdose) was 0.00 ng/mL. It also gave a Mean plasma concentration ([2]; mean, IV 1 mg/kg, 240 minutes postdose) of 0.00 ng/mL, a Mean plasma concentration ([2]; mean, IV 1 mg/kg, 360 minutes postdose) of 0.00 ng/mL and a Mean plasma concentration ([2]; mean, IV 1 mg/kg, 1440 minutes postdose) of 0.00 ng/mL. For the same compound, the “AUC % Ext” value ([2]; mouse plasma, IP, 5 mg/kg) was 2.04%, the “AUC % Ext” value ([2]; mouse plasma, IV, 1 mg/kg) was 6.49% and the bioavailability ([2]; mouse, in vivo, ip, 5 mg/kg, mouse plasma, IP, 5 mg/kg, read-out: F (relative bioavailability)) was ~99%. It also gave a C0 ([2]; mouse, in vivo, 1 mg/kg, assuming IV dose 1 mg/kg, body weight 33 g, blood volume approximately 1.7 mL, read-out: theoretical C0) of ~19400 ng/mL, a C0 ([2]; mouse, in vivo, 1 mg/kg, mouse plasma, IV, 1 mg/kg, read-out: C0 (back-calculated)) of 19100 ng/mL and a level at 10 min ([2]; mouse, plasma, mean, IP 5 mg/kg, 10 minutes postdose, read-out: Mean plasma concentration) of 16000 ng/mL. It also gave a level at 0.5 h ([2]; mouse, plasma, mean, IP 5 mg/kg, 30 minutes postdose, read-out: Mean plasma concentration) of 13200 ng/mL, a level at 1 h ([2]; mouse, plasma, mean, IP 5 mg/kg, 60 minutes postdose, read-out: Mean plasma concentration) of 15400 ng/mL and a level at 2 h ([2]; mouse, plasma, mean, IP 5 mg/kg, 120 minutes postdose, read-out: Mean plasma concentration) of 2790 ng/mL. It also gave a level at 4 h ([2]; mouse, plasma, mean, IP 5 mg/kg, 240 minutes postdose, read-out: Mean plasma concentration) of 355 ng/mL, a level at 6 h ([2]; mouse, plasma, mean, IP 5 mg/kg, 360 minutes postdose, read-out: Mean plasma concentration) of 130 ng/mL and a level at 0.05 h ([2]; mouse, plasma, mean, IV 1 mg/kg, 3 minutes postdose, read-out: Mean plasma concentration) of 14100 ng/mL. For the same compound, the level at 10 min ([2]; mouse, plasma, mean, IV 1 mg/kg, 10 minutes postdose, read-out: Mean plasma concentration) was 6960 ng/mL, the level at 0.5 h ([2]; mouse, plasma, mean, IV 1 mg/kg, 30 minutes postdose, read-out: Mean plasma concentration) was 2600 ng/mL and the level at 1 h ([2]; mouse, plasma, mean, IV 1 mg/kg, 60 minutes postdose, read-out: Mean plasma concentration) was 2030 ng/mL. The level at 2 h ([2]; mouse, plasma, mean, IV 1 mg/kg, 120 minutes postdose, read-out: Mean plasma concentration) was 488 ng/mL.
